Measurements reported in publication PMC4649089, “Urea Unfolding Study of E. coli Alanyl-tRNA Synthetase and Its Monomeric Variants Proves the Role of C-Terminal Domain in Stability” (Journal of Amino Acids, 2015).

T1: N461 alaRS (Escherichia coli, UniProt P00957)
T1 construct: gene alaS; N-terminal residues 1-461 (aminoacylation and tRNA recognition domain), N-terminal His tag (pET28a), expressed in E. coli BL21(DE3), monomer, 50710 Da
T1 sequence (P00957 2-462): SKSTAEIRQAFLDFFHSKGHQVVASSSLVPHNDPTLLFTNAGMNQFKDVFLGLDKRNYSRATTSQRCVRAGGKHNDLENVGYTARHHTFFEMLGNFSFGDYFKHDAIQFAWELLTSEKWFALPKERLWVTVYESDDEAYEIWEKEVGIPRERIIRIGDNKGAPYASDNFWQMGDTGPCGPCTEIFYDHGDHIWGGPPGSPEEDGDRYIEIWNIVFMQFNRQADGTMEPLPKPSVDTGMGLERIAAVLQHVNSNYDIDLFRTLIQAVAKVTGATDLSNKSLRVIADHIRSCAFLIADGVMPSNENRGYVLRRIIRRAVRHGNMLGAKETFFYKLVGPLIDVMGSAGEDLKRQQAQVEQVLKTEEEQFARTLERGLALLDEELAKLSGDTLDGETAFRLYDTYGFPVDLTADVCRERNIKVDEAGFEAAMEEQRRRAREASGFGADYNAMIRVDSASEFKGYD

T2: N700 alaRS (Escherichia coli, UniProt P00957)
T2 construct: gene alaS; N-terminal residues 1-700, N-terminal His tag (pET20a), expressed in E. coli BL21(DE3), monomer, 77000 Da
T2 sequence (P00957 2-701): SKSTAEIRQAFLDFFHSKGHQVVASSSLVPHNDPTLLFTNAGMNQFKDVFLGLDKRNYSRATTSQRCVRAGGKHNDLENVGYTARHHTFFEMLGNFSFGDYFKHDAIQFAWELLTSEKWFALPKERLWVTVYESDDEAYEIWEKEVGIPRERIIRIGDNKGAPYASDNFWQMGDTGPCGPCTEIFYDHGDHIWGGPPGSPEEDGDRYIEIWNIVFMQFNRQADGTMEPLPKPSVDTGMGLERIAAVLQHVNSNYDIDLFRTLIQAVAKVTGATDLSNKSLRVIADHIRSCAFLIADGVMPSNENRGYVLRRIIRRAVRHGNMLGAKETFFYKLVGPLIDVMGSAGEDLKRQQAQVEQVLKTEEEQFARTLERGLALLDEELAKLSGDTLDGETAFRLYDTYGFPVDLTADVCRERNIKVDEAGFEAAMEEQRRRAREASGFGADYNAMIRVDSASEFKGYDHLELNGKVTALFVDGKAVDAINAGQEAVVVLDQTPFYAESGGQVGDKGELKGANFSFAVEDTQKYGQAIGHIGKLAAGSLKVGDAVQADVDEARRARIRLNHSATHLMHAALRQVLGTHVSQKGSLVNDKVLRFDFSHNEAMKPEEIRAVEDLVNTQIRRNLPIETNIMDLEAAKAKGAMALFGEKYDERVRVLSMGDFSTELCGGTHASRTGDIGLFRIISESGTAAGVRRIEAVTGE

T3: alaRS (Escherichia coli, UniProt P00957, G675D)
T3 construct: gene alaS; full length, 875 residues, N-terminal His tag (pET28a), expressed in E. coli BL21(DE3), homodimer, 192500 Da
T3 sequence (P00957 2-876 G675D): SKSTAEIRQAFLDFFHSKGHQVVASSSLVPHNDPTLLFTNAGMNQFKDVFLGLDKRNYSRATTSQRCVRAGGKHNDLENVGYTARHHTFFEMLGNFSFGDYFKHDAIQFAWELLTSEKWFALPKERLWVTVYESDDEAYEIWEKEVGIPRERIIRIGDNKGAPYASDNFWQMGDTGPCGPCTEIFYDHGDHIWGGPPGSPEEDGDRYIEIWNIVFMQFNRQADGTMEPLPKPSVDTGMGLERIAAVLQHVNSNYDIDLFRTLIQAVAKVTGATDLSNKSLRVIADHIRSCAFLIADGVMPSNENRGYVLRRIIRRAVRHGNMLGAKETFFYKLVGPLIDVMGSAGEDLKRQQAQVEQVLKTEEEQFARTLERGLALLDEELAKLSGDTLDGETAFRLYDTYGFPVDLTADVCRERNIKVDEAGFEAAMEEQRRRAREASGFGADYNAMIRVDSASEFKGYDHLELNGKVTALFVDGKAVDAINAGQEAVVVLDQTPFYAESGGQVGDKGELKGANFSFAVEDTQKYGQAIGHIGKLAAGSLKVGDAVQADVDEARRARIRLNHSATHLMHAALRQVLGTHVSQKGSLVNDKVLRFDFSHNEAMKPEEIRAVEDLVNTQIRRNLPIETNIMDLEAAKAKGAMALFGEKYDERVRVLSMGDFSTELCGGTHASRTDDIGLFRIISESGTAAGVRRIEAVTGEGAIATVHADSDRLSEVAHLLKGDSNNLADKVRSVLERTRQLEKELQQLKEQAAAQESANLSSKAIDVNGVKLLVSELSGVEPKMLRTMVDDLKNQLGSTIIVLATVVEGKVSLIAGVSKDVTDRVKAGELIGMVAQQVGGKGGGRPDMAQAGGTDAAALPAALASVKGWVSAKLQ

T4: WT-alaRS (Escherichia coli, UniProt P00957)
T4 construct: gene alaS; full length, 875 residues, N-terminal His tag (pET28a), expressed in E. coli BL21(DE3), homodimer, 192500 Da
T4 sequence (P00957 2-876): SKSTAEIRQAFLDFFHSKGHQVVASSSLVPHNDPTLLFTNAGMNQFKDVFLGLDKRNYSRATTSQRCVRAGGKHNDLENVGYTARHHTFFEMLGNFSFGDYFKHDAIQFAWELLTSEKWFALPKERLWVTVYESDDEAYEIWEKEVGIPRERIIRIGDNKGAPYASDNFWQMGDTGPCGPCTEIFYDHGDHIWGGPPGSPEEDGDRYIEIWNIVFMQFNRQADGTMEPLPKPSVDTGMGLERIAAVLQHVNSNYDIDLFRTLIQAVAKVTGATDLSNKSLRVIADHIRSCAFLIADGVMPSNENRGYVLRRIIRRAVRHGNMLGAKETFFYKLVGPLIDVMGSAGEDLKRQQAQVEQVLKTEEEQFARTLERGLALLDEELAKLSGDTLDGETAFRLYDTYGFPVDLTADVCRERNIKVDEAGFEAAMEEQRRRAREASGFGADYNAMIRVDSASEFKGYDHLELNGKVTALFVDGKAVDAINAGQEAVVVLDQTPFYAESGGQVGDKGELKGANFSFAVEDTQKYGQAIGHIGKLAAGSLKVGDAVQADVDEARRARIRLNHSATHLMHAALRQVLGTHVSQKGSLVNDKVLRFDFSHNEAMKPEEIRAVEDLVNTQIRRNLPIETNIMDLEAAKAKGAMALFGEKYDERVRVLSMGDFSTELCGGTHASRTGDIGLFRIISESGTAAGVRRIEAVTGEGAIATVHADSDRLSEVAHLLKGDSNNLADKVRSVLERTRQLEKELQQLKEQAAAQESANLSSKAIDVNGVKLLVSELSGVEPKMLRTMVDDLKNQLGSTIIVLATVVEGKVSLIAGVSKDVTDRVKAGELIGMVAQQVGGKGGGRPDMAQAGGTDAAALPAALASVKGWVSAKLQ


Legend:
N461 alaRS = biological target: T1, N461 alaRS; test: ANS fluorescence titration; type: binding; conditions: read-out: dissociation constant
N700 alaRS = biological target: T2, N700 alaRS; test: ANS fluorescence titration; type: binding; conditions: read-out: dissociation constant
alaRS = biological target: T3, alaRS; test: ANS fluorescence titration; type: binding; conditions: read-out: dissociation constant
WT-alaRS = biological target: T4, WT-alaRS; test: ANS fluorescence titration; type: binding; conditions: read-out: dissociation constant
[1] = biological target: the molecule itself; test: AUC; sedimentation equilibrium, loading concentrations 5 μM, 10 μM and 20 μM (monomer), 20°C, 100 mM Tris-HCl pH 8.0, global single-species fit in SEDPHAT

Molecule | Kd (N461 alaRS) | Kd (N700 alaRS) | Kd (alaRS) | Kd (WT-alaRS) | stoichiometry N [1]
O=S(=O)(O)c1cccc2cccc(Nc3ccccc3)c12 [ANS] | 1000 to 5000 nM | 1000 to 5000 nM | 1000 to 5000 nM | 1000 to 5000 nM | –
wild type E. coli alanyl-tRNA synthetase (enzyme, UniProt P00957 1-876, looked up, alanyl-tRNA synthetase (alaRS), E. coli, full length, printed as 875 residues per subunit; Clone was a gift from Paul Schimmel; homodimer by sedimentation equilibrium and velocity; also called WT-alaRS; WT; source: E. coli BL21 (DE3), pET28a, purified (Ni-NTA agarose)) MSKSTAEIRQAFLDFFHSKGHQVVASSSLVPHNDPTLLFTNAGMNQFKDVFLGLDKRNYSRATTSQRCVRAGGKHNDLENVGYTARHHTFFEMLGNFSFGDYFKHDAIQFAWELLTSEKWFALPKERLWVTVYESDDEAYEIWEKEVGIPRERIIRIGDNKGAPYASDNFWQMGDTGPCGPCTEIFYDHGDHIWGGPPGSPEEDGDRYIEIWNIVFMQFNRQADGTMEPLPKPSVDTGMGLERIAAVLQHVNSNYDIDLFRTLIQAVAKVTGATDLSNKSLRVIADHIRSCAFLIADGVMPSNENRGYVLRRIIRRAVRHGNMLGAKETFFYKLVGPLIDVMGSAGEDLKRQQAQVEQVLKTEEEQFARTLERGLALLDEELAKLSGDTLDGETAFRLYDTYGFPVDLTADVCRERNIKVDEAGFEAAMEEQRRRAREASGFGADYNAMIRVDSASEFKGYDHLELNGKVTALFVDGKAVDAINAGQEAVVVLDQTPFYAESGGQVGDKGELKGANFSFAVEDTQKYGQAIGHIGKLAAGSLKVGDAVQADVDEARRARIRLNHSATHLMHAALRQVLGTHVSQKGSLVNDKVLRFDFSHNEAMKPEEIRAVEDLVNTQIRRNLPIETNIMDLEAAKAKGAMALFGEKYDERVRVLSMGDFSTELCGGTHASRTGDIGLFRIISESGTAAGVRRIEAVTGEGAIATVHADSDRLSEVAHLLKGDSNNLADKVRSVLERTRQLEKELQQLKEQAAAQESANLSSKAIDVNGVKLLVSELSGVEPKMLRTMVDDLKNQLGSTIIVLATVVEGKVSLIAGVSKDVTDRVKAGELIGMVAQQVGGKGGGRPDMAQAGGTDAAALPAALASVKGWVSAKLQ | – | – | – | – | 2
